The values that follow come from patent US3952012A, “Aroyl-substituted pyrroles” (McNeil Laboratories, Incorporated, priority 1974, dated 1976).

Assay [1] has as its system kaolin-induced rat paw edema. Put plainly: kaolin-induced rat paw edema assay: inhibition of paw swelling, single oral dose. The following applies: for inhibition in vivo at 25 mg/kg / % INHIBITION (Average 10 rats): 25 mg/kg p.o.; for inhibition in vivo at 50 mg/kg: 50 mg/kg p.o.; for inhibition in vivo at 100 mg/kg: 100 mg/kg p.o.; for % INHIBITION (Average 10 rats): 25 mg/kg. The assay is classed as in vivo, rat (male Holtzman). Here is the method: In the kaolin-induced rat paw edema assay, the ability of a compound, when administered in a single oral dose, to inhibit the swelling of the rat paw injected with a standard amount (0.1 ml.) of 10% kaolin suspension in saline is measured. For comparative purposes, the activity of the compound to be tested is measured against that produced by the known anti-inflammatory agent, phenylbutazone. Male Holtzman rats are used in the assay.

The next assay deals with cotton pellet granuloma. Put plainly: cotton pellet granuloma assay: granuloma tissue formed around implanted cotton pellet. The assay is classed as in vivo, rat (male Holtzman). The note with it: daily for seven days. The procedure:
In the cotton pellet granuloma assay, the ability of a compound, when administered orally to male Holtzman rats daily for seven days, to inhibit the amount of granuloma tissue formed in or around a cotton pellet implanted beneath the skin in the thoracic region of the animal is measured and compared to water controls. The method is described by Charles A. Winter and coworkers in J. Pharmacol., 141, 369 (1963). Analysis of variance is used to determine the significance of the results.

Setting [2] is: Rattus norvegicus, po, Table I, read-out: % INHIBITION (Average 10 rats).

SMILES strings stand for the structures.

In the case of `CCCCC1C(=O)N(c2ccccc2)N(c2ccccc2)C1=O` [phenylbutazone, reference compound], the inhibition (as a rule, the share of the control response that was lost under treatment) in assay [1] (80 mg/kg, comparator) is listed as 30-40%; in assay [1] (100 mg/kg, comparator) it was 50-60%.

Take `Cc1ccccc1C(=O)c1ccc(CC(=O)O)n1C` [5-(o-methylbenzoyl)-do, 1-Methyl-5-(o-toluoyl)-pyrrole-2-acetic acid]: in assay [1] (Rattus norvegicus, po, Table I, 12.5 mg/kg p.o., read-out: % INHIBITION (Average 10 rats)), the inhibition in vivo at 12.5 mg/kg turned out to be 34%.

In the case of `O=C(O)Cc1ccc(C(=O)c2ccc(Cl)cc2)[nH]1` [5-(p-Chlorobenzoyl)-pyrrole-2-acetic acid], the inhibition in vivo at 25 mg/kg in assay [1] (setting [2]) amounted to 32%.

In the case of `CCNC(=O)Cc1ccc(C(=O)c2ccc(Cl)cc2)n1C` [5-(p-Chlorobenzoyl)-N-ethyl-1-methylpyrrole-2-acetamide], the inhibition in vivo at 25 mg/kg in assay [1] (setting [2]) stood at 25%.

With `O=C(O)Cc1ccc(C(=O)c2ccc(Cl)cc2)n1Cc1ccccc1` [1-Benzyl-5-(p-chlorobenzoyl)-pyrrole-2-acetic acid], in assay [1] (setting [2]), the inhibition in vivo at 50 mg/kg came to 23%.

Turning to `Cn1c(CC#N)ccc1C(=O)c1ccc(Cl)cc1` [5-(p-Chlorobenzoyl)-1-methylpyrrole-2-acetonitrile], the granuloma weight result with cotton pellet granuloma (100 mg/kg orally, water controls 115 mg) is “about 98 mg”.

As for `Cn1c(CC(=O)O)ccc1C(=O)c1ccccc1` [Example 5-benzoyl-do, 5-Benzoyl-1-methylpyrrole-2-acetic acid], the inhibition in vivo at 25 mg/kg in assay [1] (setting [2]) is 38%.

In the case of `Cc1ccc(C(=O)c2ccc(CC(=O)O)n2C)cc1` [5-(p-methylbenzoyl)-do, 5-(p-Toluoyl)-1-methylpyrrole-2-acetic acid], the inhibition in vivo at 25 mg/kg in assay [1] (setting [2]) amounted to 44%.

`CC(C(=O)O)c1ccc(C(=O)c2ccc(Cl)cc2)n1C` (racemic) [5-(p-chlorobenzoyl)-α-methyl-1-methylpyrrole-2-acetic acid]: the inhibition in vivo at 50 mg/kg in assay [1] (setting [2]) was 56%.

Consider `Cc1cc(CC(=O)O)n(C)c1C(=O)c1ccc(Cl)cc1` [5-(p-chlorobenzoyl)-1,4-dimethylpyrrole-2-acetic acid], for which the inhibition in assay [1] (dose of 2.5 mg/kg) was found to be 51%.

Consider `CCN(CC)CCNC(=O)Cc1ccc(C(=O)c2ccc(Cl)cc2)n1C` [5-(p-Chlorobenzoyl)-N-(2-diethylaminoethyl)-1-methylpyrrole-2-acetamide], for which the inhibition in vivo at 25 mg/kg in assay [1] (setting [2]) worked out at 27%.

On to `Cn1c(CCC(=O)O)ccc1C(=O)c1ccc(Cl)cc1` [5-(p-Chlorobenzoyl)-1-methylpyrrole-2-propionic acid], for which the inhibition in vivo at 25 mg/kg in assay [1] (setting [2]) stood at 63%.

For `Cn1c(CC(=O)O)ccc1C(=O)c1ccccc1Cl` [5-(o-chlorobenzoyl)-do, 5-(o-Chlorobenzoyl)-1-methylpyrrole-2-acetic acid], the inhibition in vivo at 25 mg/kg in assay [1] (setting [2]) worked out at 44%.

As to `Cn1c(CC(=O)O)ccc1C(=O)c1ccc(Br)cc1` [5-(p-bromobenzoyl)-do, 5-(p-bromobenzoyl)-1-methylpyrrole-2-acetic acid], the inhibition in vivo at 25 mg/kg in assay [1] (setting [2]) turned out to be 42%.

Regarding `COc1ccc(C(=O)c2ccc(CC(=O)O)n2C)cc1` [5-(p-methoxybenzoyl)-do, 5-(p-Anisoyl)-1-methylpyrrole-2-acetic acid], the inhibition in vivo at 25 mg/kg in assay [1] (setting [2]) is 42%. In addition, the granuloma weight result in the assay with cotton pellet granuloma (25 mg/kg orally, water controls 110 mg) is given as “about 71 mg”.

`CCn1c(CC(=O)O)ccc1C(=O)c1ccc(Cl)cc1` [5-(p-Chlorobenzoyl)-1-ethylpyrrole-2-acetic acid]: the inhibition in vivo at 100 mg/kg in assay [1] (setting [2]) turned out to be 43%.

Turning to `Cn1c(CC(=O)O)ccc1C(=O)c1ccc(C#N)cc1` [5-(p-cyanobenzoyl)-do, 5-(p-cyanobenzoyl)-1-methylpyrrole-2-acetic acid], the inhibition in vivo at 100 mg/kg in assay [1] (setting [2]) is 20%.

As to `Cn1c(CC(=O)O)ccc1C(=O)c1cccs1` [5-(2-thenoyl)-do, 1-Methyl-5-(2-thenoyl)-pyrrole-2-acetic acid], the inhibition in vivo at 25 mg/kg in assay [1] (setting [2]) is 63%.

On to `Cn1c(CC(=O)O)ccc1C(=O)c1ccc(Cl)cc1Cl` [5-(2',4'-dichlorobenzoyl)-do, 5-(2',4'-Dichlorobenzoyl)-1-methylpyrrole-2-acetic acid], for which, in assay [1] (setting [2]), the inhibition in vivo at 25 mg/kg was found to be 51%.

Turning to `Cc1c(CC(=O)O)c[nH]c1C(=O)c1ccc(Cl)cc1` [5-(p-Chlorobenzoyl)-4-methylpyrrole-3-acetic acid], the inhibition in vivo at 50 mg/kg in assay [1] (setting [2]) was determined as 43%.

Regarding `Cn1c(CC(=O)O)ccc1C(=O)c1cccc(Cl)c1` [5-(m-chlorobenzoyl)-do, 5-(m-Chlorobenzoyl)-1-methylpyrrole-2-acetic acid], the inhibition in vivo at 25 mg/kg in assay [1] (setting [2]) is 41%.

With `Cn1c(CC(=O)NO)ccc1C(=O)c1ccc(Cl)cc1` [5-(p-Chlorobenzoyl)-1-methylpyrrole-2-acetohydroxamic acid], the inhibition in vivo at 25 mg/kg in assay [1] (setting [2]) came out at 33%.

With `CCC(C(=O)O)c1ccc(C(=O)c2ccc(Cl)cc2)n1C` (stereo not drawn) [5-(p-Chlorobenzoyl)-α-ethyl-1-methylpyrrole-2-acetic acid], the inhibition in vivo at 25 mg/kg in assay [1] (setting [2]) turned out to be 22%.

As for `Cn1c(CC(=O)O)ccc1C(=O)c1ccc(C(F)(F)F)cc1` [5-(p-trifluoromethylbenzoyl)-do, 1-methyl-5-(p-trifluoromethylbenzoyl)-pyrrole-2-acetic acid], in assay [1] (setting [2]), the inhibition in vivo at 25 mg/kg stood at 60%.

As to `Cn1c(CC(=O)O)ccc1C(=O)c1ccc(F)cc1` [5-(p-fluorobenzoyl)-do, 5-(p-fluorobenzoyl)-1-methylpyrrole-2-acetic acid], the inhibition in vivo at 25 mg/kg in assay [1] (setting [2]) was 42%.

Take `CC(C(=O)O)c1ccc(C(=O)c2ccc(Cl)cc2)n1C` (single isomer, unassigned; (-)) [(-)-5-(p-chlorobenzoyl)-α-methyl-1-methylpyrrole-2-acetic ac] [(-)-5-(p-chlorobenzoyl)-1,α-dimethylpyrrole-2-acetic acid]: the “% INHIBITION (Average 10 rats)” value in assay [1] (Table I) turned out to be 24%.

Consider `Cc1cc(CC(=O)O)[nH]c1C(=O)c1ccccc1` [5-benzoyl-4-methylpyrrole-2-acetic acid, 5-Benzoyl-4-methylpyrrole-2-acetic acid], for which the inhibition in vivo at 100 mg/kg in assay [1] (setting [2]) is 34%.

For `CCN(CC)C(=O)Cc1ccc(C(=O)c2ccc(Cl)cc2)n1C` [5-(p-Chlorobenzoyl)-N,N-diethyl-1-methylpyrrole-2-acetamide], in assay [1] (setting [2]), the inhibition in vivo at 25 mg/kg worked out at 36%.

For `CCOC(=O)Cc1ccc(C(=O)c2ccc(Cl)cc2)n1C` [Ethyl 5-(p-chlorobenzoyl)-1-methylpyrrole-2-acetate], in assay [1] (setting [2]), the inhibition in vivo at 25 mg/kg was found to be 37%.

On to `COC(=O)Cc1ccc(C(=O)c2ccc(Cl)cc2)n1C` [Methyl 5-(p-chlorobenzoyl)-1-methylpyrrole-2-acetate], for which the inhibition in vivo at 25 mg/kg in assay [1] (setting [2]) is 38%.

As for `Cc1ccc(C(=O)c2ccc(CC(=O)O)n2C)s1` [1-Methyl-5-(5-methyl-2-thenoyl)-pyrrole-2-acetic acid], the inhibition in vivo at 25 mg/kg in assay [1] (setting [2]) turned out to be 48%.

For the molecule `Cn1c(CC(N)=O)ccc1C(=O)c1ccc(Cl)cc1` [5-(p-Chlorobenzoyl)-1-methylpyrrole-2-acetamide], the inhibition in vivo at 50 mg/kg in assay [1] (setting [2]) came out at 35%.

For `Cn1c(CC(=O)O)ccc1C(=O)c1ccc(Cl)cc1` [5-(p-Chlorobenzoyl)-1-methylpyrrole-2-acetic acid], the inhibition in vivo at 25 mg/kg in assay [1] (setting [2]) came out at 47%. Besides, the results for the inhibition entry in assay [1] (single oral dose 12.5 mg/kg), in assay [1] (single oral dose 25 mg/kg) and in assay [1] (single oral doses of 50-100 mg/kg) were “about 35%”, “about 47%” and 45-53%, respectively.

As to `CC(C(=O)O)c1ccc(C(=O)c2ccc(Cl)cc2)n1C` (single isomer, unassigned; (+)) [(+)-5-(p-chlorobenzoyl)-α-methyl-1-methylpyrrole-2-acetic ac] [(+)-5-(p-chlorobenzoyl)-1,α-dimethylpyrrole-2-acetic acid], the “% INHIBITION (Average 10 rats)” value in assay [1] (Table I) turned out to be 62%.

On to `Cc1cc(C(C)C(=O)O)n(C)c1C(=O)c1ccc(Cl)cc1` (stereo not drawn) [5-(p-Chlorobenzoyl)-1,4,α-trimethylpyrrole-2-acetic acid], for which the inhibition was determined as 37% in assay [1] (3.0 mg/kg) and 53% in assay [1] (9.0 mg/kg).

In the case of `Cn1c(CC(=O)O)ccc1C(=O)c1ccc([N+](=O)[O-])cc1` [5-(p-nitrobenzoyl)-do, 5-(p-Nitrobenzoyl)-1-methylpyrrole-2-acetic acid], in assay [1] (setting [2]), the inhibition in vivo at 100 mg/kg was determined as 35%.

Regarding `Cn1c(CC(=O)O)ccc1C(=O)c1ccc(N)cc1` [5-(p-aminobenzoyl)-do, 5-(p-Aminobenzoyl)-1-methylpyrrole-2-acetic acid], in assay [1] (setting [2]), the inhibition in vivo at 25 mg/kg was determined as 23%.

Regarding `CCc1cc(CC(=O)O)n(C)c1C(=O)c1ccc(Cl)cc1` [5-(p-Chlorobenzoyl)-4-ethyl-1-methylpyrrole-2-acetic acid], the inhibition is on record as 29% in assay [1] (3.0 mg/kg) and 47% in assay [1] (9.0 mg/kg).
